Patent publication USRE42394E1, “Fungicidal compositions for the enhancement of turf quality” (Bayer CropScience Inc., priority 1995, dated 2011)

System: bentgrass cultivar “Penncross”
Assay: Turf quality and color ratings on fungicide-treated bentgrass field plots (decline from crown and root rot)
Assay type: in vivo
Conditions: summary statements of the text on the field tests
Protocol: Fungicides were evaluated on a one-year-old stand of the bentgrass cultivar “Penncross” planted in Raleigh, N.C., U.S.A. The bentgrass was planted in native soil and maintained under conditions similar to a golf green with a mowing height of 0.635 cm (.25 inches).
The fungicides were applied separately and in combination at labelled rates to 1.5 m×1.5 m (5 ft×5 ft) plots of bentgrass prior to evidence of any decline in turf quality due to crown and root rot. A CO2 backpack sprayer was used to apply the fungicide treatments at (30 lbs psi) using TEEJET™ 8004 nozzles to apply 9.5 liters (2.5 gallons) of fungicide dilutions per 93 square meters (1000 sq ft). The fungicides were initially applied and subsequently reapplied according to a 14 day schedule. In some experiments, an electrical pump sprayer was used to apply the treatments at 30 psi using a Teejet 8004 nozzle.
Turf quality, color and percent disease ratings were recorded weekly, based on a scale from 1-9, with 9 being ideal turf quality and color and 1 being all turf dead. The percent disease ratings were calculated based on the percent of area in each plot showing symptoms of brown patch. Turf quality and color ratings were used as an indicator of the health of the bentgrass and the amount of decline associated with crown and root rot.

Structure (SMILES): [Cu+2].c1ccc2c(c1)-c1nc-2nc2[n-]c(nc3nc(nc4[n-]c(n1)c1ccccc41)-c1ccccc1-3)c1ccccc21 [Pigment Blue 15]
- turf quality and color, comparison in words: enhances the activity of the ALIETTE™ and mancozeb in a synergistic interaction
